{"source": "patent US11345659B2", "about": "“Pipecolic esters for inhibition of the proteasome” (THE BOARD OF REGENTS OF THE UNIVERSY OF TEXAS SYSTEM, priority 2018, dated 2022)", "key": {"20 S proteasome": {"molecular_target": "T1, 20 S proteasome (Homo sapiens, UniProt P25787+P25789)", "T1 construct": "purified from erythrocytes; purchased Enzo Life Sciences, Inc. (Farmingdale, N.Y.); host or cells: human erythrocytes", "experiment": "PGPH peptidase activity of tRpt5-activated 20 S core", "format": "biochemical", "conditions": "core activated with tRpt5", "experimental": "Human housekeeping 20 S and 26 S and complexes purified from erythrocytes were purchased from Enzo Life Sciences, Inc. (Farmingdale, N.Y.). The 1 mg/ml stock 20 S proteasome was diluted to 0.2 mg/ml working solution in 50 mM Tris/HCl, pH 8 containing 20% glycerol (dilution buffer). For the 26 S proteasome stock, the dilution buffer was supplemented with 2 mM ATP, 1 mM MgCl2, and 1 mM DTT (dithiothreitol). […] of fluorescence emitted by 7-amino-4-methylcoumarin ([…]; Bachem Bioscience Inc., Philadelphia, Pa.), used at concentration of 100 μM. Free AMC (Sigma-Aldrich, St. Louis, Mo.) was used as the standard. The Rpt5 C-terminal peptide was synthesized (standard solid-phase peptide chemistry) and purified to at least 98% purity by GenScript (Piscataway, N.J.). The Rpt5 peptide and the peptide substrate were dissolved in dimethylsulfoxide (DMSO) and such stock solutions were stored at −20° C. […]\nThe reaction was carried out in 96-well plates, in 100 μL of reaction mixture, for 1 hour at 37° C. […] The reaction rates were calculated from a linear segment of kinetic curves constructed from measurements in 1-minutes intervals (Fluoroskan Ascent plate reader; Thermo Fisher Scientific Inc., Waltham, Mass.). Reaction rates were calculated using a linear fit executed by Slope Analyzer and Enzyme Kinetics applications launched within Origin Pro 2017 (OriginLab). […]"}, "[1]": {"molecular_target": "T2, latent core 20 S proteasome (Homo sapiens, UniProt P25787+P25789)", "T2 construct": "purified from erythrocytes; purchased Enzo Life Sciences, Inc. (Farmingdale, N.Y.); host or cells: human erythrocytes", "experiment": "PGPH peptidase activity of latent 20 S core", "format": "biochemical"}, "FKBP12": {"molecular_target": "T3, FKBP12 (Homo sapiens, UniProt P62942)", "T3 construct": "endogenous in cells; host or cells: RPMI 8226 (ATCC)", "T3 sequence (P62942 whole entry)": "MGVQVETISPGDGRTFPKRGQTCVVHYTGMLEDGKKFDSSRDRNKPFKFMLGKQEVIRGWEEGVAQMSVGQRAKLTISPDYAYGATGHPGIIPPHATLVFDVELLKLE", "experiment": "Suppression of rapamycin inhibition of S6 phosphorylation by competing for FKBP12", "format": "cell-based", "conditions": "RPMI 8226, 24 hours; FK506 10 μM, compound 3 and B1 0.2 μM, with rapamycin", "experimental": "Human multiple myeloma RPMI 8226 cells were purchased from American Type Culture Collection (ATCC; Manassas, Va.) and cultured according to ATCC specifications. […] The content of live cells was determined by excluding the Trypan Blue-stained cells. The cells were counted with TC20 Automated Cell Counter (Bio-Rad Laboratories, Hercules, Calif.) and EC50 was calculated with Origin Pro 2017 (OriginLab Corporation, Northampton, Mass.). When indicated, the cells were harvested, washed twice in PBS, resuspended in dilution buffer and stored in −80° C. To prepare crude lysates the thawed preparations were vortexed with glass beads and centrifuged for 5 min 5,000×g (4° C.). The supernate was centrifuged for 20 min 14,000×g. The resulting supernate was used as “crude lysate.” SDS-PAGE was carried in 12% acrylamide, Tris-glycine gels from Invitrogen. Chameleon Duo (Li-Cor) and Rainbow RPN800E (GE Healthcare) molecular weight standards were separated on each gel alongside lysates. The proteins were transferred to nitrocellulose membrane in a semi-dry system. The membranes were probed with specific primary antibodies from Life Technologies (S6, PS6) and Li-Cor (COX IV), and then with secondary antibodies from Li-Cor. In each experiment visualization of S6, PS6 and COX IV was performed on the same membrane with Odyssey Infrared Imaging System (Li-Cor). […]"}}, "note": "pIC50: −log10 of the molar value.", "data": [{"smiles": "COc1cc(CCCOC(=O)[C@@H]2CCCCN2C(=O)OCc2ccccc2)cc(OC)c1OC", "note": "[Compound 3, 1-benzyl 2-(3-(3,4,5-trimethoxyphenyl)propyl) (S)-piperidine-1,2-dicarboxylate]", "values": [{"measurement": "pIC50", "setting": "20 S proteasome", "value": 5.59}, {"measurement": "pIC50", "setting": "[1]", "value": "< 4.30"}, {"measurement": "remaining activity at 10 µM", "setting": "[1]; 10 μM compound, n=5, read-out: PGPH activity, % of control", "value": 99, "unit": "%"}, {"measurement": "remaining activity at 50 µM", "setting": "[1]; 50 μM compound, n=3, read-out: PGPH activity, % of control", "value": 71, "unit": "%"}, {"measurement": "suppression of rapamycin inhibition of S6 phosphorylation (FKBP12 binding)", "setting": "FKBP12", "value": "did not mimic the actions of FK506"}]}]}
